Results taken from patent US7662851B2, “Use of specific cyklolignans” (Axelar AB, priority 2001, dated 2010).

Key:
[1] = system: microtubule polymerisation; settings: cited from earlier work
[2] = rats; cited from earlier work
[3] = system: K562/S chronic myeloid leukemia cells; test: Leukemia cell viability, K562/S; type: cell-based, human; settings: Homo sapiens, 72 h, read-out: IC50 for cell viability
Description: (§1) The human chronic myeloid leukemia K562/S and K562/Vcr30 lines and the acute myeloid leukemia cell lines HL60/0 and HL60/Nov were obtained from ATCC. The K562/S and […] are wild type (non-resistant) cells, whereas K562/Vcr30 and HL60/Nov are cytostatic-resistant sublines. All leukemia cell lines were cultured in RPMI 1640 medium supplemented with 10% fetal bovine serum and with 2 mM L-glutamine, benzylpenicillin (100 U/ml) and streptomycin (100 μg/ml). The cells were grown in tissue culture flasks maintained at 95% air/5% CO2 atmosphere at 37° C. in a humidified incubator. For the experiments cells were cultured in 60-mm plastic dishes or 96-well plastic plates.
(§2) Cell proliferation kit II (Roche Inc.) is based on colorimetric change of the yellow tetrazolium salt XTT in orange formazan dye by the respiratory chain of viable cells (Roehm, N W, et al., J Immunol Methods 142:257-265, 1991). Cells seeded at a concentration of 5000/well in 100 μl medium in a 96-well plate were treated with different drugs in the given concentration. After 24 or 48 h the cells were incubated, according to the manufacturer's protocol, with XTT labelling mixture. After 4 h the formazan dye is quantified using a scanning multiwell spectrophotometer with a 495-nm filter. The absorbance is directly correlated with the number of viable cells. The standard absorbance curve was drawn by means of untreated cells seeded at a concentration of from 1000 to 10 000 cells/well with an increasing rate of 1000 cells/well. All standards and experiments were performed in triplicates.
(§3) Cells of said cell lines were seeded in 96-well plates (25 000 cells/well, medium volume per well was 100 μl), in […] medium supplemented with fetal calf serum. After 24 h picropodophyllin and the derivatives alpha-apopicropodophyllin and beta-apopicropodo-phyllin were added at different concentrations and the cells were incubated for 72 h. Cell viability was then assayed (see above). […] The results are based on 3 different experiments.
(§4) The leukemia cell lines K562/S, […], HL60/0 and HL60/Nov were cultured in 96-well plates as described in Experiment 7. After 24 h, the cells were treated for 72 h with different concentrations of the anti-cancer agent vincristine, with and without co-incubation with 0.05 μM picropodophyllin. […] Cell viability was then assayed. IC50 values for each inhibitor and cell line are shown below (Table 8). The results are based on 3 different experiments.

[4] = nude, mouse, in vivo, ip, 28 mg/kg
[5] = system: HL60/0 acute myeloid leukemia cells; test: Leukemia cell viability, HL60/0; type: cell-based, human; settings: Homo sapiens, HL-60; HL60, 72 h; read-out: IC50 for cell viability
Description: as §1, §2, §3, §4

IGF-1R = IGF-1R (Homo sapiens, UniProt P08069); test: In vitro tyrosine kinase assay: IGF-1R-catalyzed substrate phosphorylation of polyTyrGlu (pTG), cell-free; type: biochemical; parameters: expressed in transfected cells; host or cells: P6 cell line (murine fibroblasts overexpressing human IGF-1R); receptor captured on plates with an antibody to the beta subunit; settings: FIG. 3
Description: IGF-1R-catalyzed substrate phosphorylation of polyTyrGlu (pTG) was performed essentially as previously described [Parrizas M., et al., ibid., and Blum G., et al., ibid.]. Immunoprecipitated IR from HepG2, IGF-1R from P6 cell extract and immunodepleted supernatant to assay non-IGF-1R tyrosine kinases. The phosphorylated polymer substrate was probed with a purified phosphotyrosine specific monoclonal antibody conjugated to horseradish peroxidase (HARP). Color was developed with HRP chromogenic substrate o-phenylene-diamine dihydrochloride (OPD). The color was quantitated by spectrophotometry (ELISA reader) and reflects the relative amount of tyrosine kinase. The precipitate was immunoblotted with anti-bodies to IGF-1R and IR to verify the presence of the receptor. Serial dilutions were used to assay the optimal conditions with respect to the amount of IGF-1R and IR. The signal was linear for 30 minutes and was a function of IGF-1R concentration up to 75 ng/well. […] After spectrophotometry the IC50 values of inhibitors were determined using the Regression function of Statistica program.
Therefore we isolated the receptor and determined the effects of picropodophyllin on IGF-1R catalyzed substrate tyrosine phosphorylation and IGF-1R autophosphorylation in-vitro.

[6] = system: HL60/Nov acute myeloid leukemia cells; test: Leukemia cell viability, HL60/Nov; type: cell-based, human; settings: Homo sapiens, HL-60, 72 h, read-out: IC50 for cell viability
Description: as §1, §2, §3, §4

[7] = system: DWB malignant melanoma cell line; test: Cell viability (XTT), DWB; type: cell-based; settings: 48 h
Description: as §2
(§5) 12 different types of cell lines were seeded in 96-well plates (medium volume in a well was 100 μl), at a concentration of 10,000 cells/cm^2 in Minimal Essential Medium supplemented with fetal calf serum. When the cells had reached a concentration of 65,000 cells/cm^2, they were treated with different doses of podophyllotoxin and picropodophyllin for 48 h. Cell viability was then assayed (see above). […]

[8] = system: SK-MEL-2 melanoma cell line; test: Cell viability (XTT, Cell proliferation kit II), SK-MEL-2; type: cell-based; settings: Homo sapiens, SK-MEL-2, 48 h
Description: as §2, §5

Chain of IGF-1R (P08069 31-1367): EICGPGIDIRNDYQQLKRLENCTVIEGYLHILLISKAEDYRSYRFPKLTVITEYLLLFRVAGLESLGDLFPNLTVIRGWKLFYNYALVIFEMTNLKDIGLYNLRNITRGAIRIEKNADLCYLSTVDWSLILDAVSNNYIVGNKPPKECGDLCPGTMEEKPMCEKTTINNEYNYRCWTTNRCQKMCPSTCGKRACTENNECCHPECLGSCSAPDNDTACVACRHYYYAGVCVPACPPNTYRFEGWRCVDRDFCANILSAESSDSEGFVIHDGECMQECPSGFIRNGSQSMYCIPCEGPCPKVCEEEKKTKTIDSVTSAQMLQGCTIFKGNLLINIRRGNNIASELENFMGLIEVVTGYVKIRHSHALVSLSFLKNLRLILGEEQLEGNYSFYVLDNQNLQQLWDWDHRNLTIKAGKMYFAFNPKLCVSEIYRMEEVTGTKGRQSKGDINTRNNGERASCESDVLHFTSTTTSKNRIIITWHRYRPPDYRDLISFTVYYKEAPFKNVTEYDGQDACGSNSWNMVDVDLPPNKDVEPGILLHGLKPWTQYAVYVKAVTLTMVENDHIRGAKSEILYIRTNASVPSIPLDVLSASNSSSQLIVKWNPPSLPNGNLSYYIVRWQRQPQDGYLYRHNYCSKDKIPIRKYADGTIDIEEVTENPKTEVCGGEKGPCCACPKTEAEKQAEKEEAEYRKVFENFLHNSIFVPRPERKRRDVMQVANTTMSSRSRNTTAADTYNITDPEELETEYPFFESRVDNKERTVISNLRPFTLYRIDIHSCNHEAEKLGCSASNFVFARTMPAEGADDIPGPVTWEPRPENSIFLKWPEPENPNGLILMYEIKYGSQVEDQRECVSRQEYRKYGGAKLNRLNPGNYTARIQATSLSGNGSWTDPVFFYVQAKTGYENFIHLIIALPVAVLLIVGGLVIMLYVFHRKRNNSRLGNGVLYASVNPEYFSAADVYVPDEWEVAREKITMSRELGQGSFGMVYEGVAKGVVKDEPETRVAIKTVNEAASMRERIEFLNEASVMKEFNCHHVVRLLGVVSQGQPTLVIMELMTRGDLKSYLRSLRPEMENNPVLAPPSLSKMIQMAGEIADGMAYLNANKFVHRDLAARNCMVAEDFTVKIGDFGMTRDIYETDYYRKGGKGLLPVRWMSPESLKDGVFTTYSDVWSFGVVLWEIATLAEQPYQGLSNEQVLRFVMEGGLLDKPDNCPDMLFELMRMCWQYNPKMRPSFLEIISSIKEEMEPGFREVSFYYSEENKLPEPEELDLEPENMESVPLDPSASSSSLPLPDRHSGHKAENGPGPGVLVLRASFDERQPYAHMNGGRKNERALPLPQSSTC

COc1cc([C@@H]2c3cc4c(cc3[C@H](O)[C@H]3COC(=O)[C@@H]23)OCO4)cc(OC)c1OC [Picropodophyllin, picropodophyllin]
Fold lower inhibitory effect on microtubule polymerisation than podophyllotoxin [1]: 50 fold
Fold higher LD50 than podophyllotoxin [2]: more than 35 fold
IC50 [3]: 320 nM
Average concentration in the blood plasma [4]: above 0.05 μM
IC50 [5]: 170 nM
IC50 (IGF-1R): 6 nM
IC50 [6]: 110 nM

COc1cc([C@@H]2c3cc4c(cc3[C@H](O)[C@H]3COC(=O)[C@H]23)OCO4)cc(OC)c1OC [Podophyllotoxin, podophyllotoxin]
EC50 [7]: 40 nM
EC50 [8]: 50 nM
